Read-outs that look alike come from different tables or passages of the source.
Columns and labels:
Assay in all cases: biochemical
Design in all cases: Eurofins KinaseProfiler full panel at Km ATP, residual kinase activity (%) relative to DMSO
[1] = biological target: T1, EphB1(h) (Homo sapiens, UniProt P54762)
T1 sequence (P54762 1-984): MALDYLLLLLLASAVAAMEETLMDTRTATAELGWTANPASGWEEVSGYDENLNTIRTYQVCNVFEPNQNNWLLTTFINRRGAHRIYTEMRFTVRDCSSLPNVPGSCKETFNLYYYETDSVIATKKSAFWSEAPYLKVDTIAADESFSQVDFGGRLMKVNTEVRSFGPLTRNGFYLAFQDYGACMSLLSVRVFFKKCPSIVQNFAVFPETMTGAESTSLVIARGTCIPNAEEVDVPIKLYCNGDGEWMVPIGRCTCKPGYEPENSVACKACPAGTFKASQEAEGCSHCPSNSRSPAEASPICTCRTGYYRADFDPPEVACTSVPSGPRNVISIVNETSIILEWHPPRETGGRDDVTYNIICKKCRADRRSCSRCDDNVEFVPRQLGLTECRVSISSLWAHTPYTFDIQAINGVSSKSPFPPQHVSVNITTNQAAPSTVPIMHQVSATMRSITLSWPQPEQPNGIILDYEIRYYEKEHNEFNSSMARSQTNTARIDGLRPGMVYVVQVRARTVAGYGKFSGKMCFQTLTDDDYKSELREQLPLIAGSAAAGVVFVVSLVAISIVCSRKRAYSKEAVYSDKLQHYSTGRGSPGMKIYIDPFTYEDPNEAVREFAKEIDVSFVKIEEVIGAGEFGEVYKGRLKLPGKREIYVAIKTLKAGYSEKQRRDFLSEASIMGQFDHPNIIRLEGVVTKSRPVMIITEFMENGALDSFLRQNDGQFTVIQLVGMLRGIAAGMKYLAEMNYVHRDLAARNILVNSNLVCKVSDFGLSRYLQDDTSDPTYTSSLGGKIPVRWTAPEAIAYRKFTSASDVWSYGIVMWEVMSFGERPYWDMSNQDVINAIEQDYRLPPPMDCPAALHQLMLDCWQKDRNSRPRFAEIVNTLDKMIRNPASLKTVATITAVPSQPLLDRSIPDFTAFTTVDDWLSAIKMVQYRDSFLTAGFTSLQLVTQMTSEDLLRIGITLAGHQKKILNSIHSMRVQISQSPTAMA
Procedure, shortened: (§1)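 Radiometric kinase activity assays were run with ATP at Km and compounds at 10 µM, and remaining activity (%) was reported. A separate competitive binding screen measured DNA-tagged kinase displaced from immobilized active-site ligands by qPCR, giving percent kinase still bound at 10 µM compound in DMSO.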

[2] = biological target: T2, MKK4(m) (Mus musculus, UniProt P47809)
T2 construct: gene Map2k4
T2 sequence (P47809 1-397): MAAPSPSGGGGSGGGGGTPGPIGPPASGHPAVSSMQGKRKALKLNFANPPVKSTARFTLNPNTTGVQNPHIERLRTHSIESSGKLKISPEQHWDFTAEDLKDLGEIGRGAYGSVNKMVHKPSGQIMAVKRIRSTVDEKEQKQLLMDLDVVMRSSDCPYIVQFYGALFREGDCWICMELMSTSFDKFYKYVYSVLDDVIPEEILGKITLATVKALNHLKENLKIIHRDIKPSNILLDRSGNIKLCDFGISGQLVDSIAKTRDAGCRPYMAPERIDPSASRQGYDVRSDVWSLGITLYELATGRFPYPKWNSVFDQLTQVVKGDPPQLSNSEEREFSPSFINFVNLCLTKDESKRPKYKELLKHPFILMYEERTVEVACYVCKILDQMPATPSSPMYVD
Procedure, shortened: as §1

[3] = biological target: T3, MST4(h) (Homo sapiens, UniProt Q9P289)
T3 construct: gene STK26
T3 sequence (Q9P289 whole entry): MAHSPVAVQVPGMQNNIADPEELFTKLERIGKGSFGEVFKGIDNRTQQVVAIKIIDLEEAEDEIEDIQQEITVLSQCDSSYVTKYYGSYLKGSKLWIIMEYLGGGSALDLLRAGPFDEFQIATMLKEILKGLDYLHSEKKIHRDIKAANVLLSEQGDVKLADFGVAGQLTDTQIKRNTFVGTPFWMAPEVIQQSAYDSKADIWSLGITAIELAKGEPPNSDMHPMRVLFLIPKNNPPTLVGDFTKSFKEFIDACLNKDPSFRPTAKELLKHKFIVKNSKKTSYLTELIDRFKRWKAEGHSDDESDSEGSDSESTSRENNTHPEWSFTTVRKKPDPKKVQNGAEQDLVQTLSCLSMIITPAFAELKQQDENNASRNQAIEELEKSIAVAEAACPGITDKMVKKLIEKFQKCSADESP
Procedure, shortened: as §1

[4] = biological target: T4, NIM1(h) (Homo sapiens, UniProt Q8IY84)
T4 construct: gene NIM1K
T4 sequence (Q8IY84 whole entry): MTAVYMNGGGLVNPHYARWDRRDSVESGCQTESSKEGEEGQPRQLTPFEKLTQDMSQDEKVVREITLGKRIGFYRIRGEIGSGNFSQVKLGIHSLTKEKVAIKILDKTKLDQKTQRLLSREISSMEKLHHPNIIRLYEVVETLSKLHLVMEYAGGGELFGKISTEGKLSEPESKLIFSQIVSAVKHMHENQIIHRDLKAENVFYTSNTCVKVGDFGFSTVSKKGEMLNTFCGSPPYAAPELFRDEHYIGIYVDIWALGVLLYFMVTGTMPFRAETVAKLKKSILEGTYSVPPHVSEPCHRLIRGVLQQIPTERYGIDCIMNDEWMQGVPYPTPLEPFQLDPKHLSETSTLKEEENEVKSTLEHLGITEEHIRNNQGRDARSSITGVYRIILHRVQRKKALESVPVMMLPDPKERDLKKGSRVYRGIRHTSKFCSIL
Procedure, shortened: as §1

[5] = biological target: T5, TTK(h) (Homo sapiens, UniProt P33981)
T5 sequence (P33981 1-857): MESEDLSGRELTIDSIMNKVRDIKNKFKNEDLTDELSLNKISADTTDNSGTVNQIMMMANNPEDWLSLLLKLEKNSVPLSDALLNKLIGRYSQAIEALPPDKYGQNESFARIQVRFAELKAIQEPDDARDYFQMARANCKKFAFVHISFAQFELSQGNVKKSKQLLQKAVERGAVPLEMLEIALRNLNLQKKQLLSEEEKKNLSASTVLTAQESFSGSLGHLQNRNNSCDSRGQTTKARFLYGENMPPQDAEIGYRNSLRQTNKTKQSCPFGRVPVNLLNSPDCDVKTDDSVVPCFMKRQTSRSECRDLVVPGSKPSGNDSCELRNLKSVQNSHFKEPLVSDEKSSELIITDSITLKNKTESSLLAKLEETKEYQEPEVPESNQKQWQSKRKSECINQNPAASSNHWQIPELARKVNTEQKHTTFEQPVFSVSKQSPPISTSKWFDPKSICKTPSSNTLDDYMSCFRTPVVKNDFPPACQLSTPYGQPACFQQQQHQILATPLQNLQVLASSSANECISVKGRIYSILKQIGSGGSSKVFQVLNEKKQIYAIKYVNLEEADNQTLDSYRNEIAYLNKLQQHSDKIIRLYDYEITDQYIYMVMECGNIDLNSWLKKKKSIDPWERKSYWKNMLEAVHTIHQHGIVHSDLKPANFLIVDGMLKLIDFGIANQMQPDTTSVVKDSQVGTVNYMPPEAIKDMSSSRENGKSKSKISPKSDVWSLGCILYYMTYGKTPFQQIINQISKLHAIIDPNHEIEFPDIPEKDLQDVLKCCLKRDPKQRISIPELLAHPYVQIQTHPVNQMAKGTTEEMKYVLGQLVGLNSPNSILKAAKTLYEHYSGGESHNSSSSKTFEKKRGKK
Procedure, shortened: as §1

[6] = read-out: Residual activity (%) 5ay
[7] = read-out: Residual activity (%) Spautin-1 5aa
[8] = read-out: Residual activity (%) 5at
[9] = read-out: Residual activity (%) 5as

**Q.** Which remaining activity at 10 µM [1, 6] does the source give for `COc1ccc2ncnc(Nc3cccc(F)c3)c2c1` [5ay, N-(3-Fluorophenyl)-6-Methoxy-4-Quinazolinamine] here?
**A.** 88%

**Q.** And the remaining activity at 10 µM [2, 6]?
**A.** 110%

**Q.** What about the remaining activity at 10 µM [3, 6] of the same compound?
**A.** 64%

**Q.** And the remaining activity at 10 µM [4, 6]?
**A.** 97%

**Q.** And the remaining activity at 10 µM [5, 6]?
**A.** 104%

**Q.** Which remaining activity at 10 µM [1, 7] does the source give for `Fc1ccc(CNc2ncnc3ccc(F)cc23)cc1` [5aa, 6-Fluoro-N-(4-fluorobenzyl)-4-Quinazolinamine] here?
**A.** 84%

**Q.** What about the remaining activity at 10 µM [2, 7] of the same compound?
**A.** 105%

**Q.** What about the remaining activity at 10 µM [3, 7] of the same compound?
**A.** 58%

**Q.** What about the remaining activity at 10 µM [4, 7] of the same compound?
**A.** 108%

**Q.** And the remaining activity at 10 µM [5, 7]?
**A.** 64%

**Q.** How did the remaining activity at 10 µM [1, 8] turn out when `Fc1ccc2ncnc(NCCc3ccc(Cl)cc3)c2c1` [5at, N-[2-(4-Chlorophenyl)Ethyl]-6-Fluoro-4-Quinazolinamine] was run?
**A.** 95%

**Q.** And the remaining activity at 10 µM [2, 8]?
**A.** 118%

**Q.** And the remaining activity at 10 µM [3, 8]?
**A.** 72%

**Q.** What about the remaining activity at 10 µM [4, 8] of the same compound?
**A.** 110%

**Q.** What about the remaining activity at 10 µM [5, 8] of the same compound?
**A.** 89%

**Q.** Which remaining activity at 10 µM [1, 9] does the source give for `Fc1ccc(CCNc2ncnc3ccc(F)cc23)cc1` [5as, 6-Fluoro-N-[2-(4-Fluorophenyl)Ethyl]-4-Quinazolinamine] here?
**A.** 90%

**Q.** What about the remaining activity at 10 µM [2, 9] of the same compound?
**A.** 112%

**Q.** What about the remaining activity at 10 µM [3, 9] of the same compound?
**A.** 81%

**Q.** And the remaining activity at 10 µM [4, 9]?
**A.** 113%

**Q.** What about the remaining activity at 10 µM [5, 9] of the same compound?
**A.** 84%

— PMC7827406, “Structure–Activity Relationship (SAR) Study of Spautin-1 to Entail the Discovery of Novel NEK4 Inhibitors” (International Journal of Molecular Sciences, 2021)
